Assay results: ChEMBL document CHEMBL1149213, “Porphyrin-DNA cross-linking agent hybrids: chemical synthesis and biological studies” (Bioorg Med Chem Lett, 2004)

test system: THP-1; assay: Cytotoxicity was determined against THP-1 cell line as reduction in cell number; assay type: functional, cell-based; conditions: Homo sapiens

Compound | IC50 [nM]
C[N+](C)(C)Cc1cc(-c2c3nc(c(-c4ccccc4)c4ccc([nH]4)c(-c4ccc(O)c(C[N+](C)(C)C)c4)c4ccc([nH]4)c(-c4ccccc4)c4nc2C=C4)C=C3)ccc1O | 61.8
C[N+](C)(C)Cc1cc(-c2c3nc(cc4ccc([nH]4)c(-c4ccc(O)c(C[N+](C)(C)C)c4)c4nc(cc5ccc2[nH]5)C=C4)C=C3)ccc1O | 5.6
CCc1c2nc(c(-c3ccc(O)c(C[N+](C)(C)C)c3)c3ccc([nH]3)c(CC)c3ccc([nH]3)c(-c3ccc(O)c(C[N+](C)(C)C)c3)c3nc1C=C3)C=C2 | 88.4
CCc1c2nc(c(-c3ccc(OC)c(C[N+](C)(C)C)c3)c3ccc([nH]3)c(CC)c3ccc([nH]3)c(-c3ccc(OC)c(C[N+](C)(C)C)c3)c3nc1C=C3)C=C2 | 1400
